Tested on: eGFP-SLX4 and MUS81
Experiment: Chromatin residency of eGFP-SLX4 and MUS81 (chromatin-fraction co-IP)
Type: cell-based, human
Settings: acute CDK1 inhibition, eGFP-SLX4 Co-IP from mitotic chromatin
Description: Cell pellets stored at −80 °C were thawed on ice, followed by addition of ten volumes to 1 NIB-250 (15 mM Tris-HCL (pH 7.5), 60 mM KCl, 15 mM NaCl, 5 mM MgCl2, 1 mM CaCl2, 250 mM sucrose) containing 1 mM DTT, 1x cOmplete, EDTA-free Protease Inhibitor +0.3% NP. The cells were mixed by pipetting gently and then incubated on ice for 10 min. The cell pellet was then centrifuged at 400–600 x g for 5 min at 4 °C. The supernatant was transferred to a separate tube (cytoplasmic fraction). The nuclei pellet was then resuspended in ten volumes of 10:1 NIB-250 without detergent containing 1 mM DTT and 1x cOmplete, EDTA-free Protease Inhibitor. The nuclei were then pelleted by centrifugation at 400–600 x g for 5 min at 4 °C and the supernatant was discarded. The pellet was then resuspended 7 volumes relative to pellet volume of hypotonic buffer (3 mM EDTA, 0.2 mM EGTA containing 1 mM DTT and 1x cOmplete, EDTA-free Protease Inhibitor) and incubated on ice for 30 min, vortexing every 5 min. The insoluble chromatin fraction was collected by centrifugation for 4 min at 1700 x g. The supernatant, was retained, containing the nucleoplasm fraction. The chromatin pellet was washed with hypotonic buffer containing 1 mM DTT and protease inhibitors and the above centrifugation was repeated. The supernatant was discarded and the pellet retained and used as starting material for immunoprecipitation experiments. […]

O=C1NC(=NCc2cccs2)S/C1=C\c1ccc2ncccc2c1 [CDK1i]
chromatin residency of eGFP-SLX4 and MUS81: markedly impaired chromatin residency of eGFP-SLX4 and MUS81

Source: publication PMC12661054, “The CIP2A-TOPBP1 axis facilitates mitotic DNA repair via MiDAS and MMEJ” (Nature Communications, 2025)
